According to US10869474B2, “Fungicidal compositions” (UNIVERSITÄT BASEL, priority 2016, dated 2020):
Converted amounts (≈) assume the structure as drawn. Where two headings read alike, the source gives them in different places.

Legend:
Venturia inaequalis [1] = assay: In vitro bioassay in 96-well plates, minimal inhibitory concentration (MIC100); assay type: cell-based; conditions: for MIC: Venturia inaequalis, 48 h, read-out: Minimal inhibitory concentration (MIC100) against V. inaequalis
Plasmopara viticola [2] = assay: as above; assay type: cell-based; conditions: for MIC: Plasmopara viticola, read-out: Minimal inhibitory concentration (MIC100) against P. viticola
Phytophthora infestans = assay: microbe, parasite or virus in culture; assay type: cell-based; conditions: complete inhibition of germination, assessed after one day, Table 2 values are means of N independent experiments; for MIC: Phytophthora infestans, 24 h, read-out: Minimal inhibitory concentration (MIC100) against P. infestans, in vitro; for Minimal inhibitory concentration (MIC100) against P. infestans: in vitro
Venturia inaequalis [3] = assay: Plant-pathogen bioassay on apple seedlings under semi-controlled conditions; assay type: in vivo; conditions: apple cv. Jonagold seedlings, n = 6, Table 7
Plasmopara viticola [4] = assay: Plant-pathogen bioassay on grapevine seedlings under semi-controlled conditions; assay type: in vivo; conditions: grapevine cv. Chasselas seedlings, n = 6, Table 5
[5] = in vitro, complete inhibition of germination, assessed after two days, Table 2 values are means of N independent experiments
[6] = in vitro, complete inhibition of zoospore activity, assessed after 2-3 h, Table 2 values are means of N independent experiments

| Structure (SMILES) | MIC (Venturia inaequalis [1]) | MIC (Plasmopara viticola [2]) | MIC (Phytophthora infestans) | Minimal inhibitory concentration (MIC100) against V. inaequalis (Venturia inaequalis [1]; [5]) | MIC (Plasmopara viticola [2]; [6]) | Minimal inhibitory concentration (MIC100) against P. viticola (Plasmopara viticola [2]; [6]) | Efficacy Mean ± SD (Venturia inaequalis [3]; CB 0.1 mg ml^−1) | Efficacy Mean ± SD (Venturia inaequalis [3]; CB 1 mg ml^−1) | Efficacy Mean ± SD (Venturia inaequalis [3]; CB 1 mg ml^−1, listed as coniferyl benzoate) | Minimal inhibitory concentration (MIC100) against P. infestans (Phytophthora infestans) | Efficacy against P. viticola, mean ± SD (Plasmopara viticola [4]; pure compound 0.25 mg ml^−1) | Efficacy against P. viticola, mean ± SD (Plasmopara viticola [4]; pure compound 0.5 mg ml^−1) | Efficacy against P. viticola, mean ± SD (Plasmopara viticola [4]; pure compound 1 mg ml^−1) | MIC (Venturia inaequalis [1]; [5]) |
| --- | --- | --- | --- | --- | --- | --- | --- | --- | --- | --- | --- | --- | --- | --- |
| O=C(/C=C/c1ccccc1)OCc1ccccc1 [BC, benzyl cinnamate] | > 500 µg/mL | 8 µg/mL (≈ 33.6 µM) | 500 µg/mL (≈ 2100 µM) | – | – | – | – | – | – | – | – | – | – | – |
| COc1cc(/C=C/COC(=O)c2ccccc2)ccc1O [CB, coniferyl benzoate] | – | – | – | 35 µg/mL (≈ 123 µM) | 8 to 32 µg/mL (≈ 28.1 to 113 µM) | 12 µg/mL (≈ 42.2 µM) | 4 ± 53% | 69 ± 12% | 70% | 21 µg/mL (≈ 73.9 µM) | 85 ± 14% | 77 ± 50% | 99 ± 1% | – |
| O=C(/C=C/c1ccccc1)OC/C=C/c1ccc(O)cc1 [CC, p-coumaryl cinnamate] | – | – | 16 to 64 µg/mL (≈ 57.1 to 228 µM) | 32 µg/mL (≈ 114 µM) | – | 38 µg/mL (≈ 136 µM) | – | – | – | 25 µg/mL (≈ 89.2 µM) | 80 ± 16% | 95 ± 6% | 98 ± 1% | 16 to 64 µg/mL (≈ 57.1 to 228 µM) |
